Reference: the NIST ThermoML archive (doi:10.1016/j.jct.2011.06.015)
Numbers after ± are expanded uncertainties.

Test: Boiling temperature at pressure P
Conditions: 101.33 kPa; Liquid; Ebulliometric method (Recirculating still)

Row | SMILES | Boiling temperature at pressure P
1 | CCc1ccccc1 [ethylbenzene] | 136.20 ± 0.05 °C
2 | CC(C)c1ccccc1 [isopropylbenzene] | 152.40 ± 0.05 °C
3 | O=S1(=O)CCCC1 [sulfolane] | 287.33 ± 0.05 °C
4 | Cc1ccccc1 [toluene] | 110.80 ± 0.05 °C
